Measurements published in the NIST ThermoML archive (doi:10.1007/s10765-005-5570-x).

Assay: xn = mol fraction of the nth substance listed
Details: Liquid

ClCBr [bromochloromethane] + CCOC(C)=O
Details | mass density [kg/m3]
288.15 K, 101.33 kPa, x1 = 0.0961 | 976.08
288.15 K, 101.33 kPa, x1 = 0.2333 | 1083.23
288.15 K, 101.33 kPa, x1 = 0.3083 | 1145.77
288.15 K, 101.33 kPa, x1 = 0.4015 | 1228.4
288.15 K, 101.33 kPa, x1 = 0.5004 | 1322.97
288.15 K, 101.33 kPa, x1 = 0.604 | 1430.45
288.15 K, 101.33 kPa, x1 = 0.7004 | 1538.94
288.15 K, 101.33 kPa, x1 = 0.7987 | 1659.96
288.15 K, 101.33 kPa, x1 = 0.9032 | 1800.66
288.15 K, 101.33 kPa, x1 = 1 | 1945.94
298.15 K, 101.33 kPa, x1 = 0.0961 | 963.62
298.15 K, 101.33 kPa, x1 = 0.2333 | 1069.74
298.15 K, 101.33 kPa, x1 = 0.3083 | 1131.77
298.15 K, 101.33 kPa, x1 = 0.4015 | 1213.84
298.15 K, 101.33 kPa, x1 = 0.5004 | 1308.02
298.15 K, 101.33 kPa, x1 = 0.604 | 1414.77
298.15 K, 101.33 kPa, x1 = 0.7004 | 1522.14
298.15 K, 101.33 kPa, x1 = 0.7987 | 1641.51
298.15 K, 101.33 kPa, x1 = 0.9032 | 1780.71
298.15 K, 101.33 kPa, x1 = 1 | 1924.88
298.15 K, 200 kPa, x1 = 0.2995 | 1118.5
298.15 K, 200 kPa, x1 = 0.5013 | 1299.53
298.15 K, 200 kPa, x1 = 0.6994 | 1514.36
298.15 K, 600 kPa, x1 = 0.2995 | 1119.03
298.15 K, 600 kPa, x1 = 0.5013 | 1300.17
298.15 K, 700 kPa, x1 = 0.6994 | 1515.04
298.15 K, 1100 kPa, x1 = 0.2995 | 1119.69
298.15 K, 1200 kPa, x1 = 0.5013 | 1300.97
298.15 K, 1200 kPa, x1 = 0.6994 | 1515.77
298.15 K, 1900 kPa, x1 = 0.6994 | 1516.63
298.15 K, 2000 kPa, x1 = 0.2995 | 1120.79
298.15 K, 2100 kPa, x1 = 0.5013 | 1301.96
298.15 K, 3000 kPa, x1 = 0.5013 | 1303.21
298.15 K, 3100 kPa, x1 = 0.2995 | 1121.97
298.15 K, 3100 kPa, x1 = 0.6994 | 1518.35
298.15 K, 4000 kPa, x1 = 0.2995 | 1123.04
298.15 K, 4000 kPa, x1 = 0.5013 | 1304.49
298.15 K, 4000 kPa, x1 = 0.6994 | 1519.64
298.15 K, 4900 kPa, x1 = 0.5013 | 1305.64
298.15 K, 5100 kPa, x1 = 0.2995 | 1124.32
298.15 K, 5100 kPa, x1 = 0.6994 | 1521.08
298.15 K, 5800 kPa, x1 = 0.6994 | 1522.03
298.15 K, 6000 kPa, x1 = 0.5013 | 1306.93
298.15 K, 6100 kPa, x1 = 0.2995 | 1125.53
298.15 K, 6800 kPa, x1 = 0.6994 | 1523.33
298.15 K, 6900 kPa, x1 = 0.2995 | 1126.38
298.15 K, 7000 kPa, x1 = 0.5013 | 1308.07
298.15 K, 7800 kPa, x1 = 0.5013 | 1309.22
298.15 K, 7900 kPa, x1 = 0.2995 | 1127.44
298.15 K, 7900 kPa, x1 = 0.6994 | 1524.7
298.15 K, 8700 kPa, x1 = 0.6994 | 1525.86
298.15 K, 8800 kPa, x1 = 0.5013 | 1310.44
298.15 K, 9000 kPa, x1 = 0.2995 | 1128.74
298.15 K, 9800 kPa, x1 = 0.5013 | 1311.74
298.15 K, 9800 kPa, x1 = 0.6994 | 1527.42
298.15 K, 9900 kPa, x1 = 0.2995 | 1129.86
298.15 K, 11800 kPa, x1 = 0.2995 | 1131.84
298.15 K, 11900 kPa, x1 = 0.6994 | 1530.29
298.15 K, 12100 kPa, x1 = 0.5013 | 1314.57
298.15 K, 13800 kPa, x1 = 0.2995 | 1134.16
298.15 K, 13800 kPa, x1 = 0.6994 | 1532.98
298.15 K, 13900 kPa, x1 = 0.5013 | 1316.83
298.15 K, 15700 kPa, x1 = 0.2995 | 1136.18
298.15 K, 15900 kPa, x1 = 0.5013 | 1319.23
298.15 K, 15900 kPa, x1 = 0.6994 | 1535.7
298.15 K, 17600 kPa, x1 = 0.5013 | 1321.38
298.15 K, 17700 kPa, x1 = 0.2995 | 1138.39
298.15 K, 17700 kPa, x1 = 0.6994 | 1538.2
298.15 K, 19200 kPa, x1 = 0.6994 | 1540.32
298.15 K, 19400 kPa, x1 = 0.6994 | 1540.59
298.15 K, 19900 kPa, x1 = 0.5013 | 1324.19
298.15 K, 20000 kPa, x1 = 0.2995 | 1140.92
308.15 K, 101.33 kPa, x1 = 0.0961 | 949.99
308.15 K, 101.33 kPa, x1 = 0.2333 | 1054.79
308.15 K, 101.33 kPa, x1 = 0.3083 | 1116.41
308.15 K, 101.33 kPa, x1 = 0.4015 | 1197.33
308.15 K, 101.33 kPa, x1 = 0.5004 | 1290.38
308.15 K, 101.33 kPa, x1 = 0.604 | 1396.09
308.15 K, 101.33 kPa, x1 = 0.7004 | 1502.46
308.15 K, 101.33 kPa, x1 = 0.7987 | 1620.66
308.15 K, 101.33 kPa, x1 = 0.9032 | 1758.33
308.15 K, 101.33 kPa, x1 = 1 | 1900.86

BrCBr [dibromomethane] + CCOC(C)=O
Details | mass density [kg/m3]
288.15 K, 101.33 kPa, x1 = 0.0522 | 966.58
288.15 K, 101.33 kPa, x1 = 0.2014 | 1147.77
288.15 K, 101.33 kPa, x1 = 0.3006 | 1277.79
288.15 K, 101.33 kPa, x1 = 0.4028 | 1419.89
288.15 K, 101.33 kPa, x1 = 0.4852 | 1542.09
288.15 K, 101.33 kPa, x1 = 0.6012 | 1725.96
288.15 K, 101.33 kPa, x1 = 0.7001 | 1895.61
288.15 K, 101.33 kPa, x1 = 0.8077 | 2095.3
288.15 K, 101.33 kPa, x1 = 0.8997 | 2281.45
288.15 K, 101.33 kPa, x1 = 1 | 2501.88
298.15 K, 101.33 kPa, x1 = 0.0522 | 954.36
298.15 K, 101.33 kPa, x1 = 0.2014 | 1133.83
298.15 K, 101.33 kPa, x1 = 0.3006 | 1262.61
298.15 K, 101.33 kPa, x1 = 0.4028 | 1404.06
298.15 K, 101.33 kPa, x1 = 0.4852 | 1525
298.15 K, 101.33 kPa, x1 = 0.6012 | 1707.9
298.15 K, 101.33 kPa, x1 = 0.7001 | 1876.1
298.15 K, 101.33 kPa, x1 = 0.8077 | 2074.59
298.15 K, 101.33 kPa, x1 = 0.8997 | 2259.57
298.15 K, 101.33 kPa, x1 = 1 | 2478.37
298.15 K, 200 kPa, x1 = 0.2995 | 1260.2
298.15 K, 200 kPa, x1 = 0.5013 | 1549.45
298.15 K, 200 kPa, x1 = 0.6994 | 1874.05
298.15 K, 500 kPa, x1 = 0.2995 | 1260.63
298.15 K, 600 kPa, x1 = 0.5013 | 1550.03
298.15 K, 600 kPa, x1 = 0.6994 | 1874.73
298.15 K, 1100 kPa, x1 = 0.2995 | 1261.34
298.15 K, 1100 kPa, x1 = 0.5013 | 1550.84
298.15 K, 1200 kPa, x1 = 0.6994 | 1875.51
298.15 K, 1900 kPa, x1 = 0.5013 | 1551.83
298.15 K, 2100 kPa, x1 = 0.2995 | 1262.47
298.15 K, 2200 kPa, x1 = 0.6994 | 1876.85
298.15 K, 2900 kPa, x1 = 0.2995 | 1263.67
298.15 K, 2900 kPa, x1 = 0.5013 | 1553.29
298.15 K, 2900 kPa, x1 = 0.6994 | 1878.02
298.15 K, 3700 kPa, x1 = 0.2995 | 1264.58
298.15 K, 3900 kPa, x1 = 0.5013 | 1554.65
298.15 K, 4200 kPa, x1 = 0.6994 | 1879.75
298.15 K, 4700 kPa, x1 = 0.5013 | 1555.68
298.15 K, 4800 kPa, x1 = 0.2995 | 1265.79
298.15 K, 5200 kPa, x1 = 0.6994 | 1881.21
298.15 K, 5900 kPa, x1 = 0.2995 | 1267.24
298.15 K, 6000 kPa, x1 = 0.5013 | 1557.43
298.15 K, 6000 kPa, x1 = 0.6994 | 1882.25
298.15 K, 6700 kPa, x1 = 0.5013 | 1558.4
298.15 K, 6800 kPa, x1 = 0.2995 | 1268.29
298.15 K, 7000 kPa, x1 = 0.6994 | 1883.78
298.15 K, 7900 kPa, x1 = 0.5013 | 1560
298.15 K, 8000 kPa, x1 = 0.2995 | 1269.58
298.15 K, 8100 kPa, x1 = 0.6994 | 1885.33
298.15 K, 8600 kPa, x1 = 0.5013 | 1561.02
298.15 K, 8900 kPa, x1 = 0.2995 | 1270.84
298.15 K, 9100 kPa, x1 = 0.6994 | 1887
298.15 K, 9800 kPa, x1 = 0.2995 | 1271.89
298.15 K, 10000 kPa, x1 = 0.5013 | 1562.92
298.15 K, 10000 kPa, x1 = 0.6994 | 1888.23
298.15 K, 10400 kPa, x1 = 0.6994 | 1888.73
298.15 K, 12000 kPa, x1 = 0.5013 | 1565.67
298.15 K, 12100 kPa, x1 = 0.2995 | 1274.55
298.15 K, 12300 kPa, x1 = 0.6994 | 1891.62
298.15 K, 13800 kPa, x1 = 0.5013 | 1568.24
298.15 K, 14000 kPa, x1 = 0.2995 | 1276.89
298.15 K, 14000 kPa, x1 = 0.6994 | 1894.37
298.15 K, 15800 kPa, x1 = 0.2995 | 1278.96
298.15 K, 15800 kPa, x1 = 0.5013 | 1570.87
298.15 K, 15900 kPa, x1 = 0.6994 | 1897.08
298.15 K, 17600 kPa, x1 = 0.5013 | 1573.34
298.15 K, 17800 kPa, x1 = 0.6994 | 1900.02
298.15 K, 17900 kPa, x1 = 0.2995 | 1281.5
298.15 K, 19800 kPa, x1 = 0.5013 | 1576.4
298.15 K, 19800 kPa, x1 = 0.6994 | 1903.09
298.15 K, 20100 kPa, x1 = 0.2995 | 1284.19
308.15 K, 101.33 kPa, x1 = 0.0522 | 940.97
308.15 K, 101.33 kPa, x1 = 0.2014 | 1118.5
308.15 K, 101.33 kPa, x1 = 0.3006 | 1245.98
308.15 K, 101.33 kPa, x1 = 0.4028 | 1385.7
308.15 K, 101.33 kPa, x1 = 0.4852 | 1505.67
308.15 K, 101.33 kPa, x1 = 0.6012 | 1686.98
308.15 K, 101.33 kPa, x1 = 0.7001 | 1854.24
308.15 K, 101.33 kPa, x1 = 0.8077 | 2050.67
308.15 K, 101.33 kPa, x1 = 0.8997 | 2234.29
308.15 K, 101.33 kPa, x1 = 1 | 2451.74
